Publication PMC5519559, “Structure-Based Discovery of Small Molecule Inhibitors of Cariogenic Virulence” (Scientific Reports, 2017)

Assays:
[1] = biological target: T1, GtfB (Streptococcus mutans, UniProt P08987); assay: SDS-PAGE in-gel zymographic glucan-production assay at […]; format: cell-based; parameters: native GtfB from culture supernatant of S. mutans GtfCD double mutant; details: read-out: % inhibition at 25 μM
Target sequence in this assay (P08987 35-1476): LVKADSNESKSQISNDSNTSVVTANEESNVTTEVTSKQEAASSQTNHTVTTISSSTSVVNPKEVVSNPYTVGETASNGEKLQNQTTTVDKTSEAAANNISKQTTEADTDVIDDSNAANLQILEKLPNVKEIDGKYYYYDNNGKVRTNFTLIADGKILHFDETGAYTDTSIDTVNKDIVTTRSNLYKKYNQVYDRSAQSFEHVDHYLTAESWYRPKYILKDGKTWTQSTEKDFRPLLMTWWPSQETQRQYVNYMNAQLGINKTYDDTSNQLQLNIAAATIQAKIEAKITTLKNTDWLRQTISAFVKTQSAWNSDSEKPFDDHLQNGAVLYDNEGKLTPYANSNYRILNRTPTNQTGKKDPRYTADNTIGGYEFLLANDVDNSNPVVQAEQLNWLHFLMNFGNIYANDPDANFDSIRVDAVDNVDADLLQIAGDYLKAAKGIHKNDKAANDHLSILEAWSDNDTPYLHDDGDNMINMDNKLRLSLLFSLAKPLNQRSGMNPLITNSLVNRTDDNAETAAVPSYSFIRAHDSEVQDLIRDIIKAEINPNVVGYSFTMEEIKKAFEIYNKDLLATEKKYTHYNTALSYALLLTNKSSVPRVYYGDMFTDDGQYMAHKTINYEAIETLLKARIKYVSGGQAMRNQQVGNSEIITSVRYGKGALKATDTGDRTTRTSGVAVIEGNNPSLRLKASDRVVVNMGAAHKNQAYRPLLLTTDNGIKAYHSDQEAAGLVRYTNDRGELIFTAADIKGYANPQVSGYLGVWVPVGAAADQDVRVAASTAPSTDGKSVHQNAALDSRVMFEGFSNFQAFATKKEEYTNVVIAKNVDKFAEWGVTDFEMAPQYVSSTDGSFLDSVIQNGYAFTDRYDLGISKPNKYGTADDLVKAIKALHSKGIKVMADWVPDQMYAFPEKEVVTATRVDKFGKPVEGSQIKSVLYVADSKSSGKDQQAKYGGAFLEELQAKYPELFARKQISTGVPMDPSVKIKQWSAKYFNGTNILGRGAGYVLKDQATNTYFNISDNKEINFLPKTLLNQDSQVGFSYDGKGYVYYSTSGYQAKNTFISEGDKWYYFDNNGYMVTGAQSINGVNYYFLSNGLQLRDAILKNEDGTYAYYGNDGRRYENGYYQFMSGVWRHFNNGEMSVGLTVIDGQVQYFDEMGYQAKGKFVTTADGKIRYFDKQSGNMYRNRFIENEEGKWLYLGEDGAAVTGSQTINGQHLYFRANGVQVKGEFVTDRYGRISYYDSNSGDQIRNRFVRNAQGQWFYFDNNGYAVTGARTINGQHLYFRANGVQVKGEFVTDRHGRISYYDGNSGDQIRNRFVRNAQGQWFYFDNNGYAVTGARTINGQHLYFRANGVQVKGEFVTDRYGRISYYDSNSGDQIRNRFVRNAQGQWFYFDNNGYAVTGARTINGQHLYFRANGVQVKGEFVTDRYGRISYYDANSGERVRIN

[2] = biological target: T2, GtfC (Streptococcus mutans, UniProt P13470); assay: as above; format: cell-based; parameters: native GtfC from culture supernatant of S. mutans GtfBD double mutant; details: read-out: % inhibition at 25 μM
Target sequence in this assay (P13470 35-1455): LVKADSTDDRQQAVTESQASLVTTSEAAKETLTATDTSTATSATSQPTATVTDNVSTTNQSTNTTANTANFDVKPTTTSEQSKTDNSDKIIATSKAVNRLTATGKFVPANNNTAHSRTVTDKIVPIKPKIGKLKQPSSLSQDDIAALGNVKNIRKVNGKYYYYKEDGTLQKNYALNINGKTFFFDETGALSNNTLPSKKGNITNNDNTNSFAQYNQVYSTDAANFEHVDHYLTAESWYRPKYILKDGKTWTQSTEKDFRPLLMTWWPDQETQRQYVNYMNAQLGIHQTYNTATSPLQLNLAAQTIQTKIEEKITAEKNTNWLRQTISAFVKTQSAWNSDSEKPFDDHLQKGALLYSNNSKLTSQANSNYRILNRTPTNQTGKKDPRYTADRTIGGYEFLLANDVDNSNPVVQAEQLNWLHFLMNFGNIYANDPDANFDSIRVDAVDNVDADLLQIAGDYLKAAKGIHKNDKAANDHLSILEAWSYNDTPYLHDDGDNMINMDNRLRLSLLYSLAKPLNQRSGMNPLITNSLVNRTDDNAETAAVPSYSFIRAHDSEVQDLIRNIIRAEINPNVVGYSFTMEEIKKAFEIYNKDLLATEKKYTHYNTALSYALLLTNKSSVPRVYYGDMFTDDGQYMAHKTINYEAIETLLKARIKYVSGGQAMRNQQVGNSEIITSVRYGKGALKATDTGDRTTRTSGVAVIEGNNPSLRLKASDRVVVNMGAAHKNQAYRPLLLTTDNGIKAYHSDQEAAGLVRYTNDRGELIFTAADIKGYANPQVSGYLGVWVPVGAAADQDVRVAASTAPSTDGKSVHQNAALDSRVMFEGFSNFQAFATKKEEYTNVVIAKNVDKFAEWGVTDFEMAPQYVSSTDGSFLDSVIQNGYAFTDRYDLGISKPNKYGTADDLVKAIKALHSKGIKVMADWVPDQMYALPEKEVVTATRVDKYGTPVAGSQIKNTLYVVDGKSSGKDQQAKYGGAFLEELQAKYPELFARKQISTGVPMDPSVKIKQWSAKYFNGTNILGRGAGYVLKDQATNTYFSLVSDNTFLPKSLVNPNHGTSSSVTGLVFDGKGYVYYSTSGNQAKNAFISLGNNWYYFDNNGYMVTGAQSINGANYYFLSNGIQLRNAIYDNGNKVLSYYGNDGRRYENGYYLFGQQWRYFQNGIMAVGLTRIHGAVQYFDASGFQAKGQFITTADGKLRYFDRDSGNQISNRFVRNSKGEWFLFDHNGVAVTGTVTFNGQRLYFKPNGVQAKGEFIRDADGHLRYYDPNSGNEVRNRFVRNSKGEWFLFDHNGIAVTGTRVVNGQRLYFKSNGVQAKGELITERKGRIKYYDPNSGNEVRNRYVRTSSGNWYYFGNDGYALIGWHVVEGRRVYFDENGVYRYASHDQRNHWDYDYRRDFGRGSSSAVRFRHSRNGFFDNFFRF

[3] = biological target: T2, GtfC; assay: Bio-layer interferometry (OctetRed96), […] binding model; supported by zymographic inhibition ([…] at […]); parameters: his-tagged catalytic domain, residues 295 aa–1103 aa
Target sequence in this assay (P13470 295-1103): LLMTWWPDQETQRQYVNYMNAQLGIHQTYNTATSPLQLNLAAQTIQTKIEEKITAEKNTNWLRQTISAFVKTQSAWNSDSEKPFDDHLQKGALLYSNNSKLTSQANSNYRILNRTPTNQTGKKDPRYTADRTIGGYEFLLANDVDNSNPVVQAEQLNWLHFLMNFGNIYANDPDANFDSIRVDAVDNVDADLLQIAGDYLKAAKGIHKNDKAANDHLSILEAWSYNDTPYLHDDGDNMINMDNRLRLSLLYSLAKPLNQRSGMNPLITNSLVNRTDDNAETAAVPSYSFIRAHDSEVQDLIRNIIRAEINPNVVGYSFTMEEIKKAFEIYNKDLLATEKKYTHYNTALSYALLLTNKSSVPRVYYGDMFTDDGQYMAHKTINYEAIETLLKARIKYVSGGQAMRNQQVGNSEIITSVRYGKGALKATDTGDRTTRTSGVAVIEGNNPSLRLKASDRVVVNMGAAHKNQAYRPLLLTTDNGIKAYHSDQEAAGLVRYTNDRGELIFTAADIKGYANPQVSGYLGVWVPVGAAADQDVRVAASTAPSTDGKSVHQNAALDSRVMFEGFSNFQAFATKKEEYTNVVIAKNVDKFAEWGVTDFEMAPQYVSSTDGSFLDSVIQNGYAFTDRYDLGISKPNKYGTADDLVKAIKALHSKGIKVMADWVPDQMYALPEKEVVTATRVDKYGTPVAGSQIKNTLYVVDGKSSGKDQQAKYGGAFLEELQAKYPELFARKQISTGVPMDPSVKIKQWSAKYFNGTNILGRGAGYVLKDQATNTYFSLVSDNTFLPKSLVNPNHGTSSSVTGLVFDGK

[4] = biological target: T1, GtfB; assay: as above; parameters: his-tagged catalytic domain, residues 268 aa–1074 aa
Target sequence in this assay (P08987 268-1074): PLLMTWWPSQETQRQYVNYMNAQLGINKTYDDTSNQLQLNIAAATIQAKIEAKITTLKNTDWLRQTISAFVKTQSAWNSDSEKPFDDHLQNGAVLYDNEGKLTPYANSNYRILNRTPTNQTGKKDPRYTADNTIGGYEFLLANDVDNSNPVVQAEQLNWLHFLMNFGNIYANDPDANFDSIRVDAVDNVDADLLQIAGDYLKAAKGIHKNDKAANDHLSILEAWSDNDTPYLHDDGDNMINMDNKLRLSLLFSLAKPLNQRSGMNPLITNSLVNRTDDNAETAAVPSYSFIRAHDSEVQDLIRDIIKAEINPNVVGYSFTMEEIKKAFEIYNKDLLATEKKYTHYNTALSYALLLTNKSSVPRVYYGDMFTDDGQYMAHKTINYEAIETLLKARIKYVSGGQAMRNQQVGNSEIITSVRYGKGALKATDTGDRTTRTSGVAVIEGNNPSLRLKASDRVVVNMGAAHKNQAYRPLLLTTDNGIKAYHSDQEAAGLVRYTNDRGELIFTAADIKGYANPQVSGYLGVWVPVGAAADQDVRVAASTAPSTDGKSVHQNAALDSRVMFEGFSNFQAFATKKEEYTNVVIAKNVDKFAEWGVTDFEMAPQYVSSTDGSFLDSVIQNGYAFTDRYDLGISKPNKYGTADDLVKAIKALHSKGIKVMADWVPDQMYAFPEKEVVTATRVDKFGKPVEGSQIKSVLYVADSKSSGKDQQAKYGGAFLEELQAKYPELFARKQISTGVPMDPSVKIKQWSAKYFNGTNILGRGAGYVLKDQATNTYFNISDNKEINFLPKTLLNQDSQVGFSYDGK

[5] = biological target: T1, GtfB; assay: Binding study (Octet, details in supplement); weak inactive analog; parameters: catalytic domain, residues 268 aa–1074 aa
Target sequence in this assay (P08987 268-1074): as above

**Q.** Which inhibition at 25 µM [1] does the source give for `O=C(c1ccc(F)cc1)c1ccc(-c2[nH]c(-c3ccc([N+](=O)[O-])cc3O)nc2-c2ccccc2)cc1` [#G16] here?
**A.** ~60%

**Q.** And the inhibition at 25 µM [2]?
**A.** ~70%

**Q.** With `NC(=O)c1ccccc1NC(=O)c1cc2cc([N+](=O)[O-])ccc2s1` [#G43] as the compound, how does the Kd [3] read?
**A.** 0.0469 µM

**Q.** What about the Kd [4] of the same compound?
**A.** 3.7 µM

**Q.** For `O=C(Nc1ccccc1)c1cc2cc([N+](=O)[O-])ccc2s1` [#G43-D], which Kd [5] is on record?
**A.** 68 µM
